Reference: US20250188123A1, “PROTEASE INHIBITORS” (Regents of the University of Minnesota, priority 2022, published 2025)

Key:
human caspase-2 = biological target: T1, human caspase-2 (Homo sapiens, UniProt P42575); test: Fluorescent enzyme assay, Casp2 (AFC substrate Z-VDVAD-AFC); type: biochemical; conditions: for Ki (Casp3) / Ki (Casp2): selectivity Casp2 over Casp3
T1 construct: inferred from pET23b, XhoI reverse primer without stop codon, Ni-NTA purification) (C); made in house; host or cells: E. coli BL21(DE3)
T1 sequence (P42575 170-452): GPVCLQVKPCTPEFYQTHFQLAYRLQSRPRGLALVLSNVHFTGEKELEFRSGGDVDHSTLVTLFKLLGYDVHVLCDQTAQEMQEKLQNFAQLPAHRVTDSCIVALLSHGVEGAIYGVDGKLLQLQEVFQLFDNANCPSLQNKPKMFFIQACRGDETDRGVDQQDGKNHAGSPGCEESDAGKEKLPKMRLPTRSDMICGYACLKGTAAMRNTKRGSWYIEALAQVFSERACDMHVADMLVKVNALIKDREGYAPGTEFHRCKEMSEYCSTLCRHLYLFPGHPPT
From the text: (§1) Human recombinant Casp1, 6, 7, and 9 were purchased from BioVision (Milpitas/CA, USA). AFC fluorogenic substrates and control peptides (AcYVAD-CHO, AcVDVAD-CHO, AcDEVD-CHO, AcVEID-CHO, and AcLEHD-CHO) were purchased from Bachem (Torrance/CA, USA). The pET23b vector encoding human caspase-3 was a gift of Dr. Michelle Arkin at University of California, San Francisco. Expression and purification of Casp3 was guided by previously described protocols (Denault J-B, Salvesen G S., Current Protocols in Protein Science, 2002, 30(1), 21.13. 1-21.13. 15). Briefly, the plasmid was transformed into E. coli Rosetta 2 pLyss DE3 cells that were cultured at 1 L scale in shake flasks. Five hours post induction with IPTG, cells were harvested through centrifugation (4000 g for 10 minutes at 4° C.), lysed by sonication, and centrifuged again for 30 minutes at 20000 g. Supernatant was resuspended in buffer (100 mM Tris pH 8.0, 500 mM NaCl). Purification was achieved by nickel-affinity chromatography followed by ion-exchange chromatography. Protein was diluted to 0.5 mg/mL and stored at −80° C. in 100 mM Tris, pH 8.0 supplemented with 10% glycerol. The typical yield for the expression, isolation, and purification was approximately 3 mg/L. The DNA encoding human caspase-2 (hCASP2, amino acids 170-452, free of the N-terminal caspase activation and recruitment domain) open reading frame (ORF) was amplified via polymerase chain reaction (PCR) from full-length hCASP2 cDNA (Origene, Rockville, MD; Cat #SC321316) using following primers: forward, 5′-[…]-3′; reverse, 5′-[…]-3′. The PCR fragment was then cloned into the pET23b vector (Millipore Sigma, Burlington, MA), and DNA sequence was verified by classic Sanger sequencing analyses. Site-directed mutageneses were carried out using a QuikChange II XL site-directed mutagenesis kit (Agilent Technologies, Santa Clara, CA; Cat #200522) according to the manufacturer's instruction. Expression of recombinant hCASP2 was induced using 150 μM isopropyl-β-D-thiogalactopyranoside (IPTG) (Promega, Madison, WI) in the BL21(DE3) E. coli strain (Millipore Sigma) at 16° C. for 14 hours while shaking at 250 rpm. Cells were then harvested via centrifugation at 6,000 g, 4° C. for 15 minutes, followed by lysis via sonication. Proteins were initially purified using HisPur Ni-NTA resin (Thermo Fisher Scientific, Waltham, MA) followed by metal chelating chromatography (5 mL HiTrap Chelating HP columns (GE Healthcare Life Sciences, Piscataway, NJ)). Further purification was carried out using anion exchange chromatography (5 mL HiTrap Q HP columns (GE Healthcare Life Sciences)) for hCASP2. Proteins were stored in 1× phosphate-buffered saline (pH 7.4) at 10 mg/mL (concentration determined using a BCA assay (Thermo Fisher Scientific)), −80° C. until further use.
(§2) KM values were determined experimentally to be the following: Casp1: 5.9 μM; Casp2: 37.1 μM; Casp3: 7.6 μM; Casp6: 14.5 μM; Casp7: 13.8 μM; Casp9: 149.1 μM. Enzymes were diluted in buffer: 100 mM MES (pH 6.5) for Casp2 and or 100 mM HEPES (pH 7.0) for all other caspases, plus 150 mM NaCl, 0.1% CHAPS, 1.5% sucrose, 10 mM DTT. Enzyme concentrations were 0.05 U/well for Casp1, 6, and 7; 0.5 U/well for Casp9, 20 nM/well for Casp2, and 2 nM/well for Casp3. Enzyme in buffer (19 μL) was added per well in a black 384-well Corning 4514 assay plate. Test compounds were serially diluted in dimethyl sulfoxide (DMSO) and plated in duplicate into a Corning 3656 transfer plate. Test compound was added to assay plates in 0.5 μL aliquots per well and mixed 10 times using a BiomekFX (Beckman Coulter). Compound and enzyme mixture was incubated at 37° C. for 5 minutes for aldehyde warheads and 45 minutes for cyano warheads. […]

human caspase-3 = biological target: T2, human caspase-3 (Homo sapiens, UniProt P42574); test: Fluorescent enzyme assay, Casp3 (AFC substrate AcDEVD-AFC); type: biochemical
T2 construct: made in house; host or cells: E. coli Rosetta 2 pLysS DE3
T2 sequence (P42574 29-277): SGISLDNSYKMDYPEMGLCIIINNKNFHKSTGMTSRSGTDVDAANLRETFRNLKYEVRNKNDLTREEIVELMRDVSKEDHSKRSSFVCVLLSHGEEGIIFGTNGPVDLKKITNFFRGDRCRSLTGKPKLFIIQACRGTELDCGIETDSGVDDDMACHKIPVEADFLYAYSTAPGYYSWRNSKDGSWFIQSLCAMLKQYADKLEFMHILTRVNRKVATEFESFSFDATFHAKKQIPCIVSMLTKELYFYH
From the text: as §1, §2

| SMILES | Ki (human caspase-2) | Ki (Casp3) / Ki (Casp2) (human caspase-2) | Ki (human caspase-3) |
| --- | --- | --- | --- |
| Cc1ccc2c(c1)CCN(C(=O)[C@@H](NC(=O)[C@H](CCCC(=O)O)NC(=O)[C@H]1Nc3ccc(F)cc3C1(C)C)C(C)C)C2C(=O)N[C@H](C=O)CC(=O)O (stereo partly drawn) [Compound 13, (S)-6-(((S)-1-((S)-1-(((S)-1-carboxy-3-oxopropan-2-yl)carbamoyl)-6-methyl-3,4-dihydroisoquinolin-2(1H)-yl)-3-methyl-1-oxobutan-2-yl)amino)-5-((S)-5-fluoro-3,3-dimethylindoline-2-carboxamido)-6-oxohexanoic acid hydrotrifluoroacetate] | 646 nM | 155 | > 100000 nM |
| Cc1ccc2c(c1F)CCN(C(=O)[C@@H](NC(=O)[C@H](CCCC(=O)O)NC(=O)[C@@H]1Cc3ccccc3N1)C(C)C)C2C(=O)N[C@H](C=O)CC(=O)O (stereo partly drawn) [Compound 14, (S)-6-(((S)-1-((S)-1-(((S)-1-carboxy-3-oxopropan-2-yl)carbamoyl)-5-fluoro-6-methyl-3,4-dihydroisoquinolin-2(1H)-yl)-3-methyl-1-oxobutan-2-yl)amino)-5-((S)-indoline-2-carboxamido)-6-oxohexanoic acid hydrotrifluoroacetate] | 191 nM | 525 | > 100000 nM |
| Cc1ccc2c(c1F)CCN(C(=O)[C@@H](NC(=O)[C@H](CCCC(=O)O)NC(=O)[C@H]1Nc3ccc(F)cc3C1(C)C)C(C)C)C2C(=O)N[C@H](C=O)CC(=O)O (stereo partly drawn) [Compound 15, (S)-6-(((S)-1-((S)-1-(((S)-1-carboxy-3-oxopropan-2-yl)carbamoyl)-5-fluoro-6-methyl-3,4-dihydroisoquinolin-2(1H)-yl)-3-methyl-1-oxobutan-2-yl)amino)-5-((S)-5-fluoro-3,3-dimethylindoline-2-carboxamido)-6-oxohexanoic acid hydrotrifluoroacetate] | 174 nM | 575 | > 100000 nM |
